Data: US12209096B2, “Compounds and compositions for inducing chondrogenesis” (NOVARTIS AG, priority 2017, dated 2025)
Where two headings read alike, the source gives them in different places.

Tests used:
NHACs = assay: calcium flux assay; format: cell-based, human; settings: for Emax: read-out: (A) % Efficacy
Outline: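 FLIPR fluorescence (ex 470–495 nm, em 515–575 nm) was read before and after compound dispense at the indicated dose. Chondrocytes (NHACs), 2000 cells/well, had been dye-loaded 24 h after plating with Calcium 5 in HBSS/HEPES plus 5 mM probenecid, 1 h, room temperature.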

C3H10T1/2 cell line = assay: alkaline phosphatase assay in C3H10T1/2; format: cell-based; settings: alkaline phosphatase assay in C3H10T1/2, 6 days; for Emax: read-out: (D) % Efficacy; for IC50: read-out: (D) IC50
Procedure: To initiate differentiation in C3H10T1/2, Clone 8 (ATCC cat #CCL-226), 4,000 cells were plated/well in 384 Perkin Elmer CellCarrier Ultra plate in DMEM/High glucose (HyClone cat #SH30022.01) containing 10% FBS and 1× Antibiotic/Antimycotic (HyClone cat #SV30079.01). After 24 hours the test compound was then added to each well at the indicated dose. The cultures were grown at 37° C. for 6 days.
To detect the presence of hypertrophic cells, C3H10T1/2 were fixed with 4% paraformaldehyde and Hoeschst dye for 20 minutes, rinsed in PBS, then stained with Fast Blue RR Salt with Naphthol AS-MX Phosphate Alkaline Solution.
The ALP staining was imaged by fluoresecent microscopy, using the 561 wavelength, and/or quantified by high content imagining with the ImageXpress Micro Confocal (Molecular Devices, Sunnyvale, CA). Data analyses were performed with the customized multiwavelength cell-scoring application looking at the number of ALP positive cells per well.

[1] = tested on: human chondrogenic progenitor cell (CPCs); assay: Collagen type II assay (chondrogenic differentiation); format: cell-based; settings: 432 h, hCPCs, 18 days; for Emax: read-out: (B) % Efficacy; for EC50: read-out: (B) EC50
Procedure: To initiate chondrogenesis in primary CPCs, 8000 cells were plated/well in a Costar 96 well plate in MSCGM. After 24 hours the MSCGM was removed and replaced with DMEM containing 1% FBS. The test compound was then added to each well at the indicated dose. The cultures were grown at 37° C. for 18 days. A media supplement of an additional 50 μl of DMEM containing 1% FBS was given 10 days after chondrogenic induction.
To detect the presence of Collagen type II, hCPCs were fixed with 10% formalin for 20 minutes, permeablized with PBS containing 0.1% triton X-100, 0.2 mg/ml of Collagenase 2 for 10 minutes, blocked with PBS containing 5% BSA for 1 hr at room temperature, followed by incubation with primary antibody (anti-type II collagen antibody) in PBS containing 1% BSA overnight at 4° C. Cells were washed 3 times with PBS and incubated with fluorophore-conjugated secondary antibody and Hoechst dye for 1 hour at room temperature, followed by washing with PBS for 3 times.
The total intensity of staining was imaged by fluoresecent microscopy and/or quantified by high content imagining with the ImageXpress Micro (Molecular Devices, Sunnyvale, CA). Data analyses were performed with the customized multiwavelength cell-scoring application.

[2] = tested on: normal human articular chondrocytes (NHACs); assay: alkaline phosphatase assay in NHAC; format: cell-based; settings: 10 days; for Emax: read-out: (C) % Efficacy; for IC50: read-out: (C) IC50
Procedure: To initiate differentiation in NHACs, 16,000 cells were plated/well in Costar 96 well plate in CGM media (Lonza). After 24 hours the MSCGM was removed and replaced with DMEM containing 1% FBS. The test compound was then added to each well at the indicated dose. The cultures were grown at 37° C. for 10 days.
To detect the presence of hypertrophic cells, NHACs were fixed with 10% formalin and Hoeschst dye for 20 minutes, rinsed in PBS, then stained with Fast Blue RR Salt with Naphthol AS-MX Phosphate Alkaline Solution.
The total intensity of staining was imaged by fluoresecent microscopy, using the 651 wavelength, and/or quantified by high content imagining with the ImageXpress Micro (Molecular Devices, Sunnyvale, CA). Data analyses were performed with the customized multiwavelength cell-scoring application.

[3] = Mus musculus, C3H 10T1/2, 144 h
[4] = Homo sapiens, Chondrocyte, 240 h

SMILES | EC50 (NHACs; Homo sapiens) | Emax (NHACs; Homo sapiens) | Emax (C3H10T1/2 cell line; [3]) | IC50 (C3H10T1/2 cell line; [3]) | Emax [1] | EC50 [1] | Emax [2, 4] | IC50 [2, 4] | (A) % Efficacy (NHACs) | EC50 (NHACs) | (D) % Efficacy (C3H10T1/2 cell line) | IC50 (C3H10T1/2 cell line) | (C) % Efficacy [2] | IC50 [2]
O=C(Nc1cnc(Cl)c(Cl)c1)[C@@H]1[C@@H](c2ccnc(F)c2)[C@H]2O[C@@H]1C[C@@H]2O (single isomer, unassigned) [Example 90a] | > 50 µM | 101% | 48% | > 20 µM | 65% | 2.3 µM | 98% | > 50 µM |  |  |  |  |  | 
Cc1cc([C@@H]2[C@@H]3O[C@@H]([C@@H](O)[C@H]3O)[C@H]2C(=O)Nc2ccc(Cl)c(Cl)c2)ccn1 (single isomer, unassigned) [Example 157] | 29 µM | 57% | 15% | > 20 µM | 59% | 2.1 µM | 84% | 32 µM |  |  |  |  |  | 
O=C(Nc1ccc(Cl)c(Cl)c1)[C@@H]1[C@@H]2O[C@@H]([C@H]3C[C@H]32)[C@@H]1c1cncnc1 [Example 27] |  |  |  |  |  |  |  |  | 120% | 13 µM | 48% | > 20 µM | 71% | 34 µM
Cc1cc([C@H]2[C@H]3O[C@H](C[C@H]3N3CCOCC3)[C@@H]2C(=O)Nc2ccc(Cl)c(Cl)c2)ccn1 [Example 177, (1R,2R,3S,4R,5R)—N-(3,4-dichlorophenyl)-3-(2-methylpyridin-4-yl)-5-morpholino-7-oxabicyclo[2.2.1]heptane-2-carboxamide] | 22 µM | 211% | 103% | 1.5 µM | 34% | 1.5 µM | 33% | > 50 µM |  |  |  |  |  | 
Cc1cc([C@H]2[C@H]3O[C@H](C[C@@H]3O)[C@@H]2C(=O)Nc2ccc(Cl)c(Cl)c2)ccn1 (single isomer, unassigned) [Example 77a] | 26 µM | 182% | 45% | > 20 µM | 120% | 0.69 µM | 114% | 3.5 µM |  |  |  |  |  | 
Cc1cc([C@H]2[C@H]3O[C@H](C[C@@H]3O)[C@H]2C(=O)Nc2cccc(C(F)(F)F)c2)ccn1 [Example 8, (1R,2S,3S,4R,5S)-5-hydroxy-3-(2-methylpyridin-4-yl)-N-[3-(trifluromethyl)phenyl]-7-oxabicyclo[2.2.1]heptane-2-carboxamide] | > 50 µM | 50% | 16% | > 20 µM |  |  | 62% | > 31 µM |  |  |  |  |  | 
Cc1cc([C@H]2[C@H]3O[C@H]([C@H](O)[C@@H]3O)[C@@H]2C(=O)Nc2ccc(Cl)c(Cl)c2)ccn1 (single isomer, unassigned) [Example 156] | 18 µM | 28% | 42% | > 20 µM | 99% | 0.95 µM | 103% | 15 µM |  |  |  |  |  | 
Cc1cc([C@H]2[C@H]3O[C@H](C[C@H]3O)[C@@H]2C(=O)Nc2ccc(Cl)c(Cl)c2)ccn1 [Example 180, (1R,2R,3S,4R,5R)—N-(3,4-dichlorophenyl)-5-hydroxy-3-(2-methylpyridin-4-yl)-7-oxabicyclo[2.2.1]heptane-2-carboxamide] | 30 µM | 113% | 69% | 11 µM |  |  |  |  |  |  |  |  |  | 
Cn1ccc([C@H]2[C@H]3O[C@H](C[C@@H]3O)[C@@H]2C(=O)Nc2ccc(Cl)c(Cl)c2)n1 [Example 153, (1R,2R,3S,4R,5S)—N-(3,4-dichlorophenyl)-5-hydroxy-3-(1-methyl-1H-pyrazol-3-yl)-7-oxabicyclo[2.2.1]heptane-2-carboxamide] | 19 µM | 121% | 46% | > 20 µM |  |  |  |  |  |  |  |  |  | 
Cc1cc([C@@H]2[C@@H]3O[C@@H](C[C@H]3O)[C@H]2C(=O)Nc2ccc(Cl)c(Cl)c2)ccn1 [Example 77c, (1S,2S,3R,4S,5R)-N-(3,4-dichlorophenyl)-5-hydroxy-3-(2-methylpyridin-4-yl)-7-oxabicyclo[2.2.1]heptane-2-carboxamide] | 13 µM | 72% | 72% | 3.9 µM |  |  |  |  |  |  |  |  |  | 
Cc1cc([C@@H]2[C@@H]3O[C@@H](C[C@H]3O)[C@H]2C(=O)Nc2cnc(Cl)c(Cl)c2)ccn1 [Example 84, (1S,2S,3R,4S,5R)-N-(5,6-dichloropyridin-3-yl)-5-hydroxy-3-(2-methylpyridin-4-yl)-7-oxabicyclo[2.2.1]heptane-2-carboxamide] | > 50 µM | 61% | 31% | > 20 µM |  |  |  |  |  |  |  |  |  | 
O=C(Nc1ccc(Cl)c(Cl)c1)[C@H]1[C@@H]2O[C@@H]([C@H]3C[C@H]32)[C@@H]1c1cccc(C(F)(F)F)n1 [Example 120, (1S,2S,4R,5R,6R,7S)—N-(3,4-dichlorophenyl)-7-(6-(trifluoromethyl)pyridin-2-yl)-8-oxatricyclo[3.2.1.0^2,4]octane-6-carboxamide] | 20 µM | 102% | 119% | 4.4 µM |  |  |  |  |  |  |  |  |  | 
Cc1cc([C@H]2[C@H]3O[C@H](C[C@H]3N(C)C)[C@@H]2C(=O)Nc2ccc(Cl)c(Cl)c2)ccn1 [Example 166, (1R,2R,3S,4R,5R)—N-(3,4-dichlorophenyl)-5-(dimethylamino)-3-(2-methylpyridin-4-yl)-7-oxabicyclo[2.2.1]heptane-2-carboxamide] | 24 µM | 68% | 0% | > 20 µM |  |  |  |  |  |  |  |  |  | 
Cc1cc([C@H]2[C@H]3O[C@H](C[C@@H]3F)[C@@H]2C(=O)Nc2ccc(Cl)c(Cl)c2)ccn1 [Example 105, (1R,2R,3S,4R,5S)—N-(3,4-dichlorophenyl)-5-fluoro-3-(2-methylpyridin-4-yl)-7-oxabicyclo[2.2.1]heptane-2-carboxamide] | 8.2 µM | 106% | 68% | 1.7 µM |  |  |  |  |  |  |  |  |  | 
Cc1ccc([C@H]2[C@H]3O[C@H](C[C@@H]3O)[C@@H]2C(=O)Nc2ccc(Cl)c(Cl)c2)cn1 [Example 138, (1R,2R,3S,4R,5S)—N-(3,4-dichlorophenyl)-5-hydroxy-3-(6-methylpyridin-3-yl)-7-oxabicyclo[2.2.1]heptane-2-carboxamide] | > 50 µM | 0% | 24% | > 20 µM |  |  |  |  |  |  |  |  |  | 
O=C(Nc1cnc(Cl)c(Cl)c1)[C@H]1[C@@H]2O[C@@H]([C@H]3C[C@H]32)[C@@H]1c1cncnc1 [Example 75, (1S,2S,4R,5R,6R,7S)—N-(5,6-dichloropyridin-3-yl)-7-(pyrimidin-5-yl)-8-oxatricyclo[3.2.1.0^2,4]octane-6-carboxamide] | 4.4 µM | 73% | 45% | > 20 µM |  |  |  |  |  |  |  |  |  | 
Cc1cc([C@H]2[C@H]3O[C@H]([C@@H]4C[C@@H]43)[C@@H]2C(=O)Nc2cccc(OC(F)(F)F)c2)ccn1 [Example 69, (1S,2S,4R,5R,6R,7S)-7-(2-methylpyridin-4-yl)-N-(3-(trifluoromethoxy)phenyl)-8-oxatricyclo[3.2.1.0^2,4]octane-6-carboxamide] | 21 µM | 180% | 63% | > 20 µM |  |  |  |  |  |  |  |  |  | 
Cc1cc([C@@H]2[C@@H]3O[C@@H](C[C@@H]3O)[C@H]2C(=O)Nc2ccc(Cl)c(Cl)c2)ccn1 [Example 181, (1S,2S,3R,4S,5S)—N-(3,4-dichlorophenyl)-5-hydroxy-3-(2-methylpyridin-4-yl)-7-oxabicyclo[2.2.1]heptane-2-carboxamide] | 27 µM | 243% | 28% | > 20 µM |  |  |  |  |  |  |  |  |  | 
